US20240148679A1, “METHODS AND COMPOSITIONS RELATED TO TREATMENT AND PREVENTION OF CANCER BY INHIBITION OF DGAT1 AND DGAT2” (Ohio State Innovation Foundation, priority 2019, published 2024)
“Also recorded” adds a separate entry of the source.

Tests used:
Type in all cases: cell-based, human
GBM cells = experiment: GBM cell death, trypan blue counting; details: for cell death caused by DGAT1 inhibition (rescue): co-treatment with DGAT1 inhibition (A-922500 20 μg/ml, 3 days), U251
GBM cells (U251) = experiment: ROS detection with CellROX Deep Red; details: co-treatment (NAC 1 mM; ETO 6 μM) with DGAT1 inhibition
Method: (A, B) Transmission electron microscopy (TEM) analysis of the mitochondrial morphology in GBM cells (U251) treated with the DGAT1 inhibitor A-922500 (20 μg/ml) or DGAT2 inhibitor PF-06424439 (20 μg/ml) for 24 hr and shown in a or infected with shRNA-expressing lentivirus against DGAT1 for 48 hr and shown in b. Scale bar, 500 nm. Mitochondria are indicated by red arrows. Mitochondria length and loss of cristae (%) were quantified by ImageJ over 100 mitochondria in each group (mean±SEM). Statistical significance was determined by one-way ANOVA. * P<0.0001. (C, D) Representative fluorescence images of LDs (green) and mitochondria (red) in U251 cells treated with DGAT1 or DGAT2 inhibitor and shown in c or shRNA in (D) as in panels (A, B). […] The percentage of cells with tubular or fragmented mitochondria was quantified by ImageJ in more than 100 cells (mean±SEM). Statistical significance was determined by one-way ANOVA. * P<0.001. […] Lower panels show the quantification of relative basal and maximal OCR change (details please see Methods). […] Basal OCR was determined as OCR before oligomycin subtract OCR after rotenone addition, and maximal OCR was determined as OCR after FCCP subtract OCR after rotenone addition. Statistical significance was determined by one-way ANOVA. * P<0.0001. […] ROS were detected with CellROX Deep Red, and mitochondria were stained with MitoTracker Green. […]

liver cancer cells = experiment: Liver cancer cell death with DGAT1 and DGAT2 inhibitors alone or in combination
Method: MHCC97L 6×10^4 12 well plate, treated at 24 hours with 1% FBS DMEM with DGAT1 and DGAT2 inhibitors. Picture taken on day 4.
HEPG2 6×10^4 12 well plate, treated at 24 hours with 1% FBS DMEM with DGAT1 and DGAT2 inhibitors. Picture taken on day 4.
HeG2 8×10^4 12 well plate, treated at 24 hours with 1% FBS DMEM with DGAT1 and DGAT2 inhibitors. Picture taken on day 4.
Huh7 4×10^4 12-well plate, treated at 24 hours with 1% FBS DMEM with DGAT1 and DGAT2 inhibitors. Picture taken on day 4.
Hep3B 6×10^4 12-well plate, treated at 24 hours with 1% FBS DMEM with DGAT1 and DGAT2 inhibitors. Picture taken on day 4.
Huh7 6×10^4 12-well plate, treated at 24 hours with 1% FBS DMEM with DGAT1 and DGAT2 inhibitors. Picture taken on day 4.

[1] = DGAT1 inhibitor in combination with DGAT2 inhibitor

## Cc1cc(=O)oc2c(C=O)c(O)ccc12 [4μ8C]
GBM cells
  cell death caused by DGAT1 inhibition (rescue): did not exert any rescue effects; also recorded: No rescue effects

## CCOC(=O)[C@@]1(CCCCCCOc2ccc(Cl)cc2)CO1 [ETO]
GBM cells
  cell death caused by DGAT1 inhibition (rescue): significantly reduced
GBM cells (U251)
  ROS caused by DGAT1 inhibition: significantly reduced

## Cc1cccc(CC(=O)N2CCc3c2ccc(-c2cn(C)c4ncnc(N)c24)c3F)n1 [GSK2656157]
GBM cells
  cell death caused by DGAT1 inhibition (rescue): did not exert any rescue effects; also recorded: No rescue effects

## N#Cc1ccc(Oc2ccc(/C=C3\SC(=NCCc4ccccn4)NC3=O)cc2F)c(Br)c1 [JNJ DGAT2-A]
Liver cancer cells; [1]
  liver cancer cell death: effective to kill liver cancer cells
Liver cancer cells; each single inhibitor
  liver cancer cell death: no ability to induce liver cancer cell death

## CC(=O)N[C@@H](CS)C(=O)O [NAC, N-acetyl-cysteine]
GBM cells; NAC 1 mM with acylcarnitines 20 μM, 2 days
  acylcarnitine-induced GBM cell death: significantly reduced
GBM cells
  cell death caused by DGAT1 inhibition (rescue): significantly decreased
GBM cells (U251)
  ROS caused by DGAT1 inhibition: significantly decreased

## O=C(O)C[C@H]1CC[C@H](c2ccc(-c3ccc(Nc4ccc(C(F)(F)F)nc4)cn3)cc2)CC1 [Pradigastat]
Liver cancer cells; [1]
  liver cancer cell death: effective to kill liver cancer cells
Liver cancer cells; each single inhibitor
  liver cancer cell death: no ability to induce liver cancer cell death

## CCCCCCC(=O)CCCCCC/C=C/C[C@@H](O)[C@H](O)[C@@](N)(CO)C(=O)O [myriocin]
GBM cells
  cell death caused by DGAT1 inhibition (rescue): no rescue effects; also recorded: does not rescue cell death
